The source of these data is US20250313572A1, “MACROCYCLIC MCL-1 INHIBITORS AND METHODS OF USE” (AbbVie Inc., priority 2017, published 2025).

For assay [1], the system named is AMO-1 human multiple myeloma tumor cell line. The experiment in a line: AMO-1 cell viability assay (CellTiter-Glo, 24 hours). The format is cell-based. The following applies: Homo sapiens, AMO1, 24 h, read-out: AMO-1 Viability IC50 (μM, 10% FBS), 10% FBS, 24 hours of compound treatment. A general note: ATP-based viability assays read luminescence as a measure of living cells.

Assay [2] concerns the target GST-MCL-1 (Homo sapiens, UniProt Q07820). The experiment in a line: TR-FRET MCL-1 binding assay (competition with probe F-Bak). In outline:
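Test compounds, 11 three-fold dilutions from 25 μM final, incubated 2 hours at room temperature with GST-MCL-1, F-Bak probe and Tb-anti-GST antibody. TR-FRET read at 340/35 nm excitation with 520/525 and 495/510 nm emission. Run without human serum and with 10% HS.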
In general terms: Time-resolved FRET reads energy transfer from a long-lived donor to a nearby acceptor.

The test system of assay [3] is NCI-H929 human multiple myeloma tumor cell line. The experiment in a line: NCI-H929 cell viability assay (CellTiter-Glo, 24 hours). In kind it is cell-based. The following applies: Homo sapiens, NCI-H929, 24 h, read-out: H929 Viability IC50 (μM, 10% FBS), 10% FBS, 24 hours of compound treatment.
[4] abbreviates: MCL-1 Binding Ki (nM, 10% HS), in the presence of 10% HS (human serum).
The mark [5] stands for this setting: without HS, read-out: MCL-1 Binding Ki.

Usually IC50 stands for the concentration that gives 50% inhibition. Usually Ki stands for a dissociation constant, usually derived from enzyme kinetics or from competition with a known ligand.

Like-named read-outs stand apart in the source and are kept apart here.

GST-MCL-1, sequence (Q07820 whole entry): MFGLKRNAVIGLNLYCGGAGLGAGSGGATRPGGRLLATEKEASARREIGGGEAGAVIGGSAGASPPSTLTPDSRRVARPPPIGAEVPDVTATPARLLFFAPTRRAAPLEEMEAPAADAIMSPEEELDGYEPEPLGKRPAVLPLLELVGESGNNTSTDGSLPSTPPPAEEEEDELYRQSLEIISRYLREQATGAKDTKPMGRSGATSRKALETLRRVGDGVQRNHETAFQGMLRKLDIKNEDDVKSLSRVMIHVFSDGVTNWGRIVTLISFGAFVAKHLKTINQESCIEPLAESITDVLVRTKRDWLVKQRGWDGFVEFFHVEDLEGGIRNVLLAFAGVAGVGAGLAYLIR

`COCCOCCOCCOCCOCCOC[C@]1(F)CC[C@@H](c2nccc(COc3ccc4cc3C[C@H](C(=O)O)Oc3ncnc5sc(-c6ccc(F)cc6)c(c35)-c3c(C)c(Cl)c(c(Cl)c3C)O[C@H](CN3CCN(C)CC3)CO4)n2)CC1` [Example 113, (7R,16R)-19,23-dichloro-10-({2-[(1s,4s)-4-fluoro-4-(2,5,8,11,14,17-hexaoxaoctadecan-1-yl)cyclohexyl]pyrimidin-4-yl}methoxy)-1-(4-fluorophenyl)-20,22-dimethyl-16-[(4-methylpiperazin-1-yl)methyl]-7,8,15,16-tetrahydro-18,21-etheno-13,9-(metheno)-6,14,17-trioxa-2-thia-3,5-diazacyclononadeca[1,2,3-cd]indene-7-carboxylic Acid]: the IC50 in assay [1] was 0.28 nM; in assay [3] it was 0.00064 µM. Moreover, the Ki in assay [2] (setting [4]) was found to be 0.065 nM; in assay [2] (setting [5]) it was 0.016 nM.
On the same counts, the results for `Cc1c(Cl)c2c(Cl)c(C)c1-c1c(-c3ccc(F)cc3)sc3ncnc(c13)O[C@@H](C(=O)O)Cc1cc(ccc1OCc1ccnc(N3CCOCCOCCOCCOCC3)n1)OC[C@@H](CN1CCN(C)CC1)O2` [Example 115, (7R,16R)-19,23-dichloro-1-(4-fluorophenyl)-20,22-dimethyl-16-[(4-methylpiperazin-1-yl)methyl]-10-{[2-(1,4,7,10-tetraoxa-13-azacyclopentadecan-13-yl)pyrimidin-4-yl]methoxy}-7,8,15,16-tetrahydro-18,21-etheno-13,9-(metheno)-6,14,17-trioxa-2-thia-3,5-diazacyclononadeca[1,2,3-cd]indene-7-carboxylic Acid] are 0.593 nM, 0.00113 µM, 0.862 nM and 0.093 nM.
As to `Cc1c(Cl)c2c(Cl)c(C)c1-c1c(-c3ccc(F)cc3)sc3ncnc(c13)O[C@@H](C(=O)O)Cc1cc(ccc1OCc1ccnc(N3CCOCCOCCOCCOCCOCC3)n1)OC[C@@H](CN1CCN(C)CC1)O2` [Example 116, (7R,16R)-19,23-dichloro-1-(4-fluorophenyl)-20,22-dimethyl-16-[(4-methylpiperazin-1-yl)methyl]-10-{[2-(1,4,7,10,13-pentaoxa-16-azacyclooctadecan-16-yl)pyrimidin-4-yl]methoxy}-7,8,15,16-tetrahydro-18,21-etheno-13,9-(metheno)-6,14,17-trioxa-2-thia-3,5-diazacyclononadeca[1,2,3-cd]indene-7-carboxylic Acid], the half-maximal inhibitory concentration (IC50) in assay [1] worked out at 2.97 nM; in assay [3], 0.00798 µM. The Ki in assay [2] (setting [4]) is 2.94 nM; in assay [2] (setting [5]), 0.332 nM.
For the molecule `Cc1c(Cl)c2c(Cl)c(C)c1-c1c(-c3ccc(F)cc3)sc3ncnc(c13)O[C@@H](C(=O)O)Cc1cc(ccc1OCc1ccnc(-c3cccc(CN4CCS(=O)(=O)CC4)c3)n1)OC[C@@H](CN1CCN(C)CC1)O2` [Example 117, (7R,16R)-19,23-dichloro-10-[(2-{3-[(1,1-dioxo-1λ^6-thiomorpholin-4-yl)methyl]phenyl}pyrimidin-4-yl)methoxy]-1-(4-fluorophenyl)-20,22-dimethyl-16-[(4-methylpiperazin-1-yl)methyl]-7,8,15,16-tetrahydro-18,21-etheno-13,9-(metheno)-6,14,17-trioxa-2-thia-3,5-diazacyclononadeca[1,2,3-cd]indene-7-carboxylic Acid], the IC50 came to 0.205 nM in assay [1] and 0.000364 µM in assay [3]. For the same molecule, the Ki in assay [2] (setting [4]) worked out at 0.219 nM; in assay [2] (setting [5]), 0.025 nM.
On the same counts, the results for `COCCOCCOCCOC[C@]1(F)CC[C@@H](c2nccc(COc3ccc4cc3C[C@H](C(=O)O)Oc3ncnc5sc(-c6ccc(F)cc6)c(c35)-c3c(C)c(Cl)c(c(Cl)c3C)O[C@H](CN3CCN(C)CC3)CO4)n2)CC1` [Example 118, (7R,16R)-19,23-dichloro-1-(4-fluorophenyl)-10-({2-[(1s,4s)-4-fluoro-4-(2,5,8,11-tetraoxadodecan-1-yl)cyclohexyl]pyrimidin-4-yl}methoxy)-20,22-dimethyl-16-[(4-methylpiperazin-1-yl)methyl]-7,8,15,16-tetrahydro-18,21-etheno-13,9-(metheno)-6,14,17-trioxa-2-thia-3,5-diazacyclononadeca[1,2,3-cd]indene-7-carboxylic Acid] are 0.247 nM, 0.000396 µM, 27.3 nM and 1.99 nM.
As to `COCCOCCO[C@]1(c2nccc(COc3ccc4cc3C[C@H](C(=O)O)Oc3ncnc5sc(-c6ccc(F)cc6)c(c35)-c3c(C)c(Cl)c(c(Cl)c3C)O[C@H](CN3CCN(C)CC3)CO4)n2)CC[C@@H](OCC2COCCO2)CC1` (stereo partly drawn) [Example 121, (7R,16R)-19,23-dichloro-10-[(2-{(1r,4r)-4-[(1,4-dioxan-2-yl)methoxy]-1-[2-(2-methoxyethoxy)ethoxy]cyclohexyl}pyrimidin-4-yl)methoxy]-1-(4-fluorophenyl)-20,22-dimethyl-16-[(4-methylpiperazin-1-yl)methyl]-7,8,15,16-tetrahydro-18,21-etheno-9,13-(metheno)-6,14,17-trioxa-2-thia-3,5-diazacyclononadeca[1,2,3-cd]indene-7-carboxylic Acid], the values for the IC50 in assay [1] and in assay [3] were 5.08 nM and 0.00956 µM, respectively. Besides, the values for the Ki in assay [2] (setting [4]) and in assay [2] (setting [5]) were 0.231 nM and 0.052 nM, respectively.
On the same counts, the results for `COCCOCCO[C@]1(c2nccc(COc3ccc4cc3C[C@H](C(=O)O)Oc3ncnc5sc(-c6ccc(F)cc6)c(c35)-c3c(C)c(Cl)c(c(Cl)c3C)O[C@H](CN3CCN(C)CC3)CO4)n2)CC[C@H](OCC2COCCO2)CC1` (stereo partly drawn) [Example 122, (7R,16R)-19,23-dichloro-10-[(2-{(1s,4s)-4-[(1,4-dioxan-2-yl)methoxy]-1-[2-(2-methoxyethoxy)ethoxy]cyclohexyl}pyrimidin-4-yl)methoxy]-1-(4-fluorophenyl)-20,22-dimethyl-16-[(4-methylpiperazin-1-yl)methyl]-7,8,15,16-tetrahydro-18,21-etheno-9,13-(metheno)-6,14,17-trioxa-2-thia-3,5-diazacyclononadeca[1,2,3-cd]indene-7-carboxylic Acid] are 1.07 nM, 0.00277 µM, 0.698 nM and 0.024 nM.
On the same counts, the results for `Cc1c(Cl)c2c(Cl)c(C)c1-c1c(-c3ccc(F)cc3)sc3ncnc(c13)O[C@@H](C(=O)O)Cc1cc(ccc1OCc1ccnc(-c3ccc(OCC4COCCOCCOCCOCCOCCO4)cc3)n1)OC[C@@H](CN1CCN(C)CC1)O2` (stereo partly drawn) [Example 123, (7R,16R)-19,23-dichloro-1-(4-fluorophenyl)-10-[(2-{4-[(1,4,7,10,13,16-hexaoxacyclooctadecan-2-yl)methoxy]phenyl}pyrimidin-4-yl)methoxy]-20,22-dimethyl-16-[(4-methylpiperazin-1-yl)methyl]-7,8,15,16-tetrahydro-18,21-etheno-13,9-(metheno)-6,14,17-trioxa-2-thia-3,5-diazacyclononadeca[1,2,3-cd]indene-7-carboxylic Acid] are 1.28 nM, 0.00467 µM, 0.051 nM and 0.003 nM.
As for `Cc1c(Cl)c2c(Cl)c(C)c1-c1c(-c3ccc(F)cc3)sc3ncnc(c13)O[C@@H](C(=O)O)Cc1cc(ccc1OCc1ccnc(-c3ccc(CN4CCS(=O)(=O)CC4)cc3)n1)OC[C@@H](CN1CCN(C)CC1)O2` [Example 126, (7R,16R)-19,23-dichloro-10-[(2-{4-[(1,1-dioxo-1˜^6-thiomorpholin-4-yl)methyl]phenyl}pyrimidin-4-yl)methoxy]-1-(4-fluorophenyl)-20,22-dimethyl-16-[(4-methylpiperazin-1-yl)methyl]-7,8,15,16-tetrahydro-18,21-etheno-13,9-(metheno)-6,14,17-trioxa-2-thia-3,5-diazacyclononadeca[1,2,3-cd]indene-7-carboxylic Acid], the results for the IC50 in assay [1] and in assay [3] were 0.544 nM and 0.00169 µM, respectively. For the same molecule, the Ki came to 0.39 nM in assay [2] (setting [4]) and 0.043 nM in assay [2] (setting [5]).
On the same counts, the results for `COCCOCCOC[C@H]1CC=C(c2nccc(COc3ccc4cc3C[C@H](C(=O)O)Oc3ncnc5sc(-c6ccc(F)cc6)c(c35)-c3c(C)c(Cl)c(c(Cl)c3C)O[C@H](CN3CCN(C)CC3)CO4)n2)CC1` [Example 127, (7R,16R)-19,23-dichloro-1-(4-fluorophenyl)-10-({2-[(4R)-4-{[2-(2-methoxyethoxy)ethoxy]methyl}cyclohex-1-en-1-yl]pyrimidin-4-yl}methoxy)-20,22-dimethyl-16-[(4-methylpiperazin-1-yl)methyl]-7,8,15,16-tetrahydro-18,21-etheno-13,9-(metheno)-6,14,17-trioxa-2-thia-3,5-diazacyclononadeca[1,2,3-cd]indene-7-carboxylic acid] are 0.124 nM, 0.000385 µM, 0.339 nM and 0.028 nM.
On the same counts, the results for `COCCOCCOC[C@@H]1CC=C(c2nccc(COc3ccc4cc3C[C@H](C(=O)O)Oc3ncnc5sc(-c6ccc(F)cc6)c(c35)-c3c(C)c(Cl)c(c(Cl)c3C)O[C@H](CN3CCN(C)CC3)CO4)n2)CC1` [Example 128, (7R,16R)-19,23-dichloro-1-(4-fluorophenyl)-10-({2-[(4S)-4-{[2-(2-methoxyethoxy)ethoxy]methyl}cyclohex-1-en-1-yl]pyrimidin-4-yl}methoxy)-20,22-dimethyl-16-[(4-methylpiperazin-1-yl)methyl]-7,8,15,16-tetrahydro-18,21-etheno-13,9-(metheno)-6,14,17-trioxa-2-thia-3,5-diazacyclononadeca[1,2,3-cd]indene-7-carboxylic Acid] are 0.0939 nM, 0.000313 µM, 0.275 nM and 0.027 nM.
